Experimental data reported in patent publication US20230218563A1, “METHODS FOR TREATING OR PREVENTING CHRONIC KIDNEY DISEASE” (Arthrosi Therapeutics, Inc., priority 2020, published 2023).

Tests used:
serum uric acid (sUA) = assay: Phase 1 single dose study, pharmacodynamics (serum uric acid) in healthy adult males; format: in vivo, human
Experimental: The dose groups included Cohort 1 (15 mg or placebo, fasted, oral suspension), Cohort 2 (50 mg or placebo, fasted, suspension), Cohort 3 (100 mg or placebo, fasted, oral suspension), Cohort 4 (150 mg or placebo, fasted, oral suspension), Cohort 6 (50 mg or placebo, fed, oral suspension), and Cohort 7 (50 mg or placebo, fasted, oral capsule). […] An additional 8 subjects received placebo.
Decrease in sUA appeared to reach a plateau at 100 mg or lower.

[1] = Solubility of test articles in HBSS assay buffer; settings: all tested concentrations, highest 10 μM
Experimental: Before the experiment, the medium was removed and the cells were washed twice with 100 μL of HBSS without Cl^−. Uptake experiments were carried out at 37±1° C. in 50 μL of HBSS without Cl^−, pH 7.4 containing the probe substrate (20 μM uric acid) and the test article (TA) or solvent.

[2] = 100 mg single oral, fasted, 6 h
[3] = 100 mg single oral, fasted, 12 h
[4] = 100 mg single oral, fasted, 24 h
[5] = 100 mg single oral, fasted, 30 h
[6] = 100 mg single oral, fasted, 36 h
[7] = 100 mg single oral, fasted, 48 h
[8] = 100 mg single oral, fasted, 54 h
[9] = 100 mg single oral, fasted, 60 h
[10] = 100 mg single oral, fasted, 72 h
[11] = 100 mg single oral, fasted, 96 h
[12] = 100 mg single oral, fasted, 120 h
[13] = 150 mg single oral, fasted, 6 h
[14] = 150 mg single oral, fasted, 12 h
[15] = 150 mg single oral, fasted, 24 h
[16] = 150 mg single oral, fasted, 30 h
[17] = 150 mg single oral, fasted, 36 h
[18] = 150 mg single oral, fasted, 48 h
[19] = 150 mg single oral, fasted, 54 h
[20] = 150 mg single oral, fasted, 60 h
[21] = 150 mg single oral, fasted, 72 h
[22] = 150 mg single oral, fasted, 96 h
[23] = 150 mg single oral, fasted, 120 h
[24] = single oral dose, 50 mg or higher, fasted

[2H]c1c([2H])c([2H])c2c(C(=O)c3cc(Br)c(O)c(Br)c3)c(C(C)O)oc2c1[2H] (racemic) [Compound 1, (3,5-dibromo-4-hydroxyphenyl)(2-(1-hydroxyethyl)benzofuran-3-yl-4,5,6,7-d4)methanone]
Serum uric acid, mean (serum uric acid (sUA); 50 mg single oral, fasted, 120 h): 6.4 mg/dL
Percent change in serum uric acid, mean, time-matched (Day-1) baseline (serum uric acid (sUA); 50 mg single oral, fed, 6 h): −20.3%
Serum uric acid, mean (serum uric acid (sUA); 50 mg single oral, fed, 6 h): 4.8 mg/dL
Percent change in serum uric acid, mean, time-matched (Day-1) baseline (serum uric acid (sUA); 50 mg single oral, fed, 12 h): −37.7%
Serum uric acid, mean (serum uric acid (sUA); 50 mg single oral, fed, 12 h): 3.9 mg/dL
Percent change in serum uric acid, mean, time-matched (Day-1) baseline (serum uric acid (sUA); 50 mg single oral, fed, 24 h): −41.9%
Serum uric acid, mean (serum uric acid (sUA); 50 mg single oral, fed, 24 h): 3.8 mg/dL
Percent change in serum uric acid, mean, time-matched (Day-1) baseline (serum uric acid (sUA); 50 mg single oral, fed, 30 h): −40.1%
Serum uric acid, mean (serum uric acid (sUA); 50 mg single oral, fed, 30 h): 3.6 mg/dL
Percent change in serum uric acid, mean, time-matched (Day-1) baseline (serum uric acid (sUA); 50 mg single oral, fed, 36 h): −37.4%
Serum uric acid, mean (serum uric acid (sUA); 50 mg single oral, fed, 36 h): 3.9 mg/dL
Percent change in serum uric acid, mean, time-matched (Day-1) baseline (serum uric acid (sUA); 50 mg single oral, fed, 48 h): −32.6%
Serum uric acid, mean (serum uric acid (sUA); 50 mg single oral, fed, 48 h): 4.4 mg/dL
Percent change in serum uric acid, mean, time-matched (Day-1) baseline (serum uric acid (sUA); 50 mg single oral, fed, 54 h): −29.8%
Serum uric acid, mean (serum uric acid (sUA); 50 mg single oral, fed, 54 h): 4.2 mg/dL
Percent change in serum uric acid, mean, time-matched (Day-1) baseline (serum uric acid (sUA); 50 mg single oral, fed, 60 h): −31.3%
Serum uric acid, mean (serum uric acid (sUA); 50 mg single oral, fed, 60 h): 4.3 mg/dL
Percent change in serum uric acid, mean, time-matched (Day-1) baseline (serum uric acid (sUA); 50 mg single oral, fed, 72 h): −23.3%
Serum uric acid, mean (serum uric acid (sUA); 50 mg single oral, fed, 72 h): 5.0 mg/dL
Percent change in serum uric acid, mean, time-matched (Day-1) baseline (serum uric acid (sUA); 50 mg single oral, fed, 96 h): −10.9%
Serum uric acid, mean (serum uric acid (sUA); 50 mg single oral, fed, 96 h): 5.8 mg/dL
Percent change in serum uric acid, mean, time-matched (Day-1) baseline (serum uric acid (sUA); 50 mg single oral, fed, 120 h): −5.8%
Serum uric acid, mean (serum uric acid (sUA); 50 mg single oral, fed, 120 h): 6.1 mg/dL
sUA reduction with versus without food (serum uric acid (sUA); 50 mg single oral, throughout 120 hours post-dose): no difference observed
Percent change in serum uric acid, mean, time-matched (Day-1) baseline (serum uric acid (sUA); [2]): −31.6%
Serum uric acid, mean (serum uric acid (sUA); [2]): 3.5 mg/dL
Percent change in serum uric acid, mean, time-matched (Day-1) baseline (serum uric acid (sUA); [3]): −48.2%
Serum uric acid, mean (serum uric acid (sUA); [3]): 2.6 mg/dL
Percent change in serum uric acid, mean, time-matched (Day-1) baseline (serum uric acid (sUA); [4]): −58.8%
Serum uric acid, mean (serum uric acid (sUA); [4]): 2.3 mg/dL
Percent change in serum uric acid, mean, time-matched (Day-1) baseline (serum uric acid (sUA); [5]): −58.2%
Serum uric acid, mean (serum uric acid (sUA); [5]): 2.2 mg/dL
Percent change in serum uric acid, mean, time-matched (Day-1) baseline (serum uric acid (sUA); [6]): −52.9%
Serum uric acid, mean (serum uric acid (sUA); [6]): 2.4 mg/dL
Percent change in serum uric acid, mean, time-matched (Day-1) baseline (serum uric acid (sUA); [7]): −47.4%
Serum uric acid, mean (serum uric acid (sUA); [7]): 2.9 mg/dL
Percent change in serum uric acid, mean, time-matched (Day-1) baseline (serum uric acid (sUA); [8]): −45.7%
Serum uric acid, mean (serum uric acid (sUA); [8]): 2.8 mg/dL
Percent change in serum uric acid, mean, time-matched (Day-1) baseline (serum uric acid (sUA); [9]): −37.5%
Serum uric acid, mean (serum uric acid (sUA); [9]): 3.1 mg/dL
Percent change in serum uric acid, mean, time-matched (Day-1) baseline (serum uric acid (sUA); [10]): −38.7%
Serum uric acid, mean (serum uric acid (sUA); [10]): 3.4 mg/dL
Percent change in serum uric acid, mean, time-matched (Day-1) baseline (serum uric acid (sUA); [11]): −17.3%
Serum uric acid, mean (serum uric acid (sUA); [11]): 4.6 mg/dL
Percent change in serum uric acid, mean, time-matched (Day-1) baseline (serum uric acid (sUA); [12]): −3.8%
Serum uric acid, mean (serum uric acid (sUA); [12]): 5.4 mg/dL
Percent change in serum uric acid, mean, time-matched (Day-1) baseline (serum uric acid (sUA); [13]): −36.2%
Serum uric acid, mean (serum uric acid (sUA); [13]): 3.7 mg/dL
Percent change in serum uric acid, mean, time-matched (Day-1) baseline (serum uric acid (sUA); [14]): −50.4%
Serum uric acid, mean (serum uric acid (sUA); [14]): 2.6 mg/dL
Percent change in serum uric acid, mean, time-matched (Day-1) baseline (serum uric acid (sUA); [15]): −59.3%
Serum uric acid, mean (serum uric acid (sUA); [15]): 2.5 mg/dL
Percent change in serum uric acid, mean, time-matched (Day-1) baseline (serum uric acid (sUA); [16]): −59.1%
Serum uric acid, mean (serum uric acid (sUA); [16]): 2.3 mg/dL
Percent change in serum uric acid, mean, time-matched (Day-1) baseline (serum uric acid (sUA); [17]): −55.6%
Serum uric acid, mean (serum uric acid (sUA); [17]): 2.4 mg/dL
Percent change in serum uric acid, mean, time-matched (Day-1) baseline (serum uric acid (sUA); [18]): −53.8%
Serum uric acid, mean (serum uric acid (sUA); [18]): 2.8 mg/dL
Percent change in serum uric acid, mean, time-matched (Day-1) baseline (serum uric acid (sUA); [19]): −49.5%
Serum uric acid, mean (serum uric acid (sUA); [19]): 2.9 mg/dL
Percent change in serum uric acid, mean, time-matched (Day-1) baseline (serum uric acid (sUA); [20]): −40.8%
Serum uric acid, mean (serum uric acid (sUA); [20]): 3.1 mg/dL
Percent change in serum uric acid, mean, time-matched (Day-1) baseline (serum uric acid (sUA); [21]): −37.1%
Serum uric acid, mean (serum uric acid (sUA); [21]): 3.8 mg/dL
Percent change in serum uric acid, mean, time-matched (Day-1) baseline (serum uric acid (sUA); [22]): −25.9%
Serum uric acid, mean (serum uric acid (sUA); [22]): 4.5 mg/dL
Percent change in serum uric acid, mean, time-matched (Day-1) baseline (serum uric acid (sUA); [23]): −15.4%
Serum uric acid, mean (serum uric acid (sUA); [23]): 5.2 mg/dL
onset of sUA lowering effect (serum uric acid (sUA); [24]): 6 hours post-dose
time of sUA nadir (serum uric acid (sUA); [24]): 24-36 hours post-dose
time sUA remained lower than baseline levels (serum uric acid (sUA); [24]): up to 72 hours post-dose
dose at which decrease in sUA appeared to reach a plateau (serum uric acid (sUA); single oral dose, fasted): ≤ 100 mg
solubility in HBSS buffer [1]: soluble
